Laboratory results taken from patent publication US20140212431A1, “PCSK9-BINDING POLYPEPTIDES AND METHODS OF USE” (Genentech, Inc., priority 2011, published 2014).

How the values were obtained:
liver LDLR = assay: rescue of liver LDLR upon treatment with PCSK9 in a mouse model (immuno-blotting); type: in vivo; settings: mice, 60 mg/kg i.v. 2 h before 30 μg PCSK9 i.v., liver after 1 h
Experimental: Mice were injected with vehicle (V), EGF-Fc (WT) or EGF66-Fc (MUT) followed by a bolus injection of recombinant human PCSK9 (30 μg/mouse). Livers were collected after 1 h and LDLR quantified by immuno-blotting. Each lane represents the pooled liver samples of three mice. The band intensities were quantified, normalized to transferring receptor contents and expressed as fraction of the untreated group (=1.0).
To determine whether increased affinity and cell efficacy could translate into improved therapeutic potential, we compared the effects of EGFwt-Fc and EGF66-Fc in rescuing liver LDLR upon treatment with PCSK9 in a mouse model. Eight weeks old male C57BL/6 mice were purchased from approved vendor and housed for 2 weeks before starting the experiment. […]
Approximately 200 mg of each liver were homogenized in Extraction Buffer 1 supplemented with Protease Inhibitor Cocktail (ProteoExtract® Native Membrane Protein Extraction Kit, Cat. No. 444810, Calbiochem) using the TissueLyser (Qiagen) according to manufacturer's instructions. […] After 30 min of gentle agitation at 4° C., the samples were centrifuged and the supernatants containing the membrane proteins were quantified using the Bradford assay. […]
Mice were first injected with vehicle, EGFwt-Fc and EGF66-Fc followed by a bolus of recombinant human PCSK9 (30 μg/mouse) and livers were collected and analyzed 1 h later. […]

[1] = test system: PCSK9-mediated LDLR degradation; assay: LDLR degradation assay with HepG2 cells (FACS of cell surface LDLR); type: cell-based, human; settings: HepG2, 15 μg/ml PCSK9, 4 h, highest concentration tested 20 μM
Experimental: Values are the average ±SD of three independent experiments.
HepG2 cells (ATCC; Manassas, Va.) were seeded into 48 well plates (Corning; Corning, N.Y.) at 1×10^5 cells per well in high glucose medium (DMEM, Gibco; Carlsbad, Calif.) containing 2 mM glutamine (Sigma), penicillin/streptomycin (Gibco) and 10% FBS (Sigma) and incubated overnight. Then the medium was changed to DMEM containing 10% lipoprotein deficient serum (LPDS, Intracel; Frederick, Md.). After 24 h, 15 μg/ml PCSK9 was mixed with serially diluted EGFwt-Fc and EGF66-Fc fusion proteins, added to the cells and incubated at 37° C. for 4 h. Cells were rinsed with PBS and detached using 2.5 mM EDTA (EMD; Gibbstown, N.J.). After centrifugation, the resuspended cells were incubated with 1:20 anti-LDLR antibody (Progen Biotechnik; Heidelberg, Germany) on ice for 15 min. The samples were then washed with PBS and incubated with 1:200 diluted goat anti mouse IgG Alexa Fluor® 488 (Invitrogen; Carlsbad, Calif.) on ice for 15 min. After two PBS washes cells were resuspended in PBS containing 10 μg/ml of propidium iodide and analyzed on a dual laser flow cytometer (FACScan, Becton Dickinson; Franklin Lakes, N.J.). Relative fluorescence units (RFUs) were used to quantify LDLR expression levels on the HepG2 cell surface. Cell surface LDLR levels were expressed as percent of LDLR levels measured in the absence of PCSK9 (=control).

PCSK9 binding to LDLR = molecular target: T1, PCSK9 binding to LDLR (Homo sapiens, UniProt Q8NBP7); assay: competition binding ELISA (biotinylated PCSK9 binding to coated rLDLR); settings: Fc fusion protein; average ±SD of three experiments; read-out: IC50, inhibition of PCSK9 binding to LDLR
T1 construct: His8 (C); biotin (chemical, Sulfo-NHS); host or cells: PCSK9: CHO cells, transient; LDLR extracellular domain purchased
T1 sequence (Q8NBP7 153-692): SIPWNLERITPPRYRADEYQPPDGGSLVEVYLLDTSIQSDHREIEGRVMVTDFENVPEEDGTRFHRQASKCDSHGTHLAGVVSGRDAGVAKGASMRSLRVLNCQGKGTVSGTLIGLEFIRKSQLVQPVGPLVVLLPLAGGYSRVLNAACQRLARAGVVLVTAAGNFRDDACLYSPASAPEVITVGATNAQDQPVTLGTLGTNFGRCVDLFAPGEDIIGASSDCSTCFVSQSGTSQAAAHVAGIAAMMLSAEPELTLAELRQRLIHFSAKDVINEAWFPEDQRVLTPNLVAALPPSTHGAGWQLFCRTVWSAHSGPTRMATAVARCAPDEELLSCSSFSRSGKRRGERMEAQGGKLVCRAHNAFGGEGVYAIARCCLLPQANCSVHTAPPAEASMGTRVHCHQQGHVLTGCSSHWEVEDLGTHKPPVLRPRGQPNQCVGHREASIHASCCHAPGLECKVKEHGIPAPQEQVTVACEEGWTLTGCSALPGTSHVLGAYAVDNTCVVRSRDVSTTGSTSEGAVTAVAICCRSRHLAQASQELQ
T1 sequence (Q8NBP7 31-152 partner limits assumed): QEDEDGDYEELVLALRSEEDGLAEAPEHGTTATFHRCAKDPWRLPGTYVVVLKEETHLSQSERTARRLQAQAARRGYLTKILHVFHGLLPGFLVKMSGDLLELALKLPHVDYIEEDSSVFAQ
Experimental: The blocking activity of EGF peptides and EGF-Fc fusion proteins was determined by using a competition binding ELISA. Wells of 384 well MaxiSorp™ plates (Nalge Nunc International; Rochester, N.Y.) were coated overnight at 4° C. with 1 μg/mL of recombinant human LDLR extracellular domain (rLDLR) (R&D Systems; Minneapolis, Minn.) in coating buffer (50 mM sodium carbonate, pH 9.6). Then 0.5 μg/ml of biotinylated PCSK9 in assay buffer (25 mM HEPES, pH 7.2, 150 mM NaCl, 0.2 mM CaCl2, 0.1% BSA, 0.05% Tween®20) was mixed with an equal volume of serially diluted EGF peptides (0.017-6000 nM) or EGF-Fc (0.034-6000 nM) and incubated for 30 min. The solutions were added to rLDLR coated plates and incubated for 2 h. Bound biotinylated rPCSK9 was detected by sequential additions of streptavidin-horseradish peroxidase (GE Healthcare; Buckinghamshire, UK) and substrate 3, 3′, 5, 5′ tetramethyl benzidine (TMBE 1000, Moss; Pasadena, Md.). The mean absorbance values from duplicate wells were plotted as a function of antibody concentration and the data were fitted to a four parameter equation for each antibody using KaleidaGraph (Synergy Software; Reading, Pa.).

PCSK9 = molecular target: T2, PCSK9 (Homo sapiens, UniProt Q8NBP7); assay: spot phage ELISA of EGF(A)-displaying phage clones against biotinylated PCSK9; type: binding; settings: compared to wild type
T2 construct: His8 (C); made in house; host or cells: CHO cells, transient, pRK5 vector, purified from conditioned media
T2 sequence (Q8NBP7 153-692): as the sequence (Q8NBP7 153-692) above
Experimental: “s/n ratio” refers to signal:noise ratio, wherein “signal” is the spot phage ELISA signal detected against biotinylated PCSK9 captured by NeutrAvidin coated on the 384-well MaxiSorp™ plate; “noise” is the ELISA signal against NeutrAvidin alone.
After four rounds of binding selection, individual phage clones were picked and inoculated into 450 μl 2YT media containing 50 μg/ml carbenecillin and M13-KO7 helper phage in 96-well blocks, which were grown at 37° C. for overnight. The supernatant was analyzed with spot phage ELISA as follows: Biotinylated PCSK9 was captured to NeutrAvidin-coated 384-well MaxiSorp™ immunoplates and phage supernatant diluted (1:3) with PBT buffer was added to the wells. The plates were washed and bound phage was detected with anti-M13-HRP followed by TMB substrate. In these assays, phage binding to NeutrAvidin alone was tested in parallel to assess background binding. Clones whose binding signals for PCSK9 were more than 4 times higher than to NeutrAvidin (background) were considered positive. Positive clones were subjected to DNA sequence analysis.

## EGFwt-Fc: wild type EGF(A) domain of LDLR fused via linker GGGSGAAQVTNKTHT to Fc domain of human IgG1 [reference compound]
Liver LDLR
  liver LDLR level rescued, % of control levels: less than 50%
[1]
  LDLR surface levels, percent of control levels measured in the absence of PCSK9: 56%

## EGF52: EGF(A) variant: Asp299 to Ser, Asn301 to Leu, Asn309 to Arg or Lys, Asp310 to Lys; phage clone and synthetic peptide
PCSK9 binding to LDLR
  IC50: 0.7 ± 0.3 nM

## EGF50: phage-displayed EGF(A) clone with single mutation at N309 to Arg
PCSK9
  binding of phage-displayed clone to PCSK9 (in words): moderate increase of binding
